From patent EP0407137B1, “Benzazine compounds and pharmaceutical uses thereof” (priority 1989, dated 1991) come the findings set out here.

Structures can show the parent of a compound that is named as a salt.

One experiment concerns 5-HT₃ receptor. Description: Antagonistic effect against von Bezold-Jarish reflex caused by serotonin in anesthetized rats. Particulars: i.v., 5 minutes before serotonin (20 µg/kg i.v.), dose required to antagonize the reflex bradycardia by 50%. It counts as in vivo, Male Wistar rats. On the procedure:
5-HT₃ receptor blocking effects of the compounds of the present invention were evaluated based on the antagonistic effects against van Bezold-Jarish reflex caused by administering serotonin to anesthetized rats as an index according to Forzard's method described in Naunyuschmiedeberg's Arch. Pharmacol., vol.326, pp36, 1984.
Male Wistar rats weighing 350-450 g were anesthetized with an intraperitoneal injection of 1.25g/kg of urethane. The left jugular vein was cannulated for the intravenous injection and the left femoral […] was cannulated for the measurement of blood pressure and heart rate. Serotonin (20 µg/kg) was intravenously injected, and the compounds of the present invention were intravenously injected 5 minutes before the challenge with serotonin. The antagonistic activity of the compounds of the present invention against the caused reflex bradycardia was measured and the effective dose (ED₅₀, µg/kg), the dose required to antagonize the maximum activity by 50%, was determined.

The target in experiment [1] is T1, serotonin 1A (5-HT1A) receptor (Rattus norvegicus, UniProt P19327).
T1 sequence (P19327 1-422): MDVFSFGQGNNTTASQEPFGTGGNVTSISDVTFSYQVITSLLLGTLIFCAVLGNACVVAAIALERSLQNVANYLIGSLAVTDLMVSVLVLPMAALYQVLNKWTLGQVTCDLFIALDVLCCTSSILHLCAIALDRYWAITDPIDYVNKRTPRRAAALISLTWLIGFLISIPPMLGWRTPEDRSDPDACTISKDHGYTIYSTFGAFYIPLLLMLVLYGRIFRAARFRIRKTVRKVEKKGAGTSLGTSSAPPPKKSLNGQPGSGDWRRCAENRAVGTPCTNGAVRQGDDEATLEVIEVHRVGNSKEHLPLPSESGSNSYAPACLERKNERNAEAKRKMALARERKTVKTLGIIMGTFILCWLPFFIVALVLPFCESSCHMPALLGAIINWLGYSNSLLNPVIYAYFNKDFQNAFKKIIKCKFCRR
Kind of experiment: Serotonin binding test (tritium 8-OH-DPAT, crude synaptosome fraction from hippocampus). Further details: species or system Wistar rat. The note with it: tritium 8-OH-DPAT 0.2 nM, 37°C for 12 minutes, rat hippocampus synaptosomes; read-out: Serotonin binding test IC₅₀. How it is done:
Specific serotonin 1A (5-HT1A) receptor binding test was conducted in accordance with the manner described in Journal of the Neurochemistry, vol.44, page 1685, 1985.
Crude synaptosome fraction was separated from hippocampus of 9 to 10 weeks-aged Wistar rat and suspended into 50 mM tris-hydrochloric acid buffer solution (pH 7.4) containing 1 mM manganese chloride.
Next, to the resulting synaptosome suspension were added the test compound of the present invention at several concentrations and tritium 8-OH-DPAT at the terminal concentration of 0.2 nM, and the mixture was allowed to react at 37°C for 12 minutes. After completion of the reaction, the reaction mixture was suction filtered through Whatman GF/B glass filter. The glass filter was washed with 50 mM tris-hydrochloric acid buffer solution (pH 7.4), and then the radioactivity of the residue remaining on the glass filter was measured by liquid scintillation counter. Non-specific binding was determined under the presence of 10⁻⁵M serotonin (5-HT). 50% Inhibition concentration (IC₅₀) of test compound was graphically determined.

The next experiment has as its target T2, dopamine D₂ receptor (Rattus norvegicus, UniProt P61169).
T2 construct: Crude synaptosome fraction was separated from corpus striatum of 9 to 10 weeks-aged Wistar rats; from tissue; host or cells: rat corpus striatum, crude synaptosome fraction
Description: Dopamine D₂ binding test (tritium Spiperone, crude synaptosome fraction from corpus striatum). Further details: species or system Wistar rats. The note with it: tritium Spiperone 0.2 nM, 37°C for 20 minutes, rat corpus striatum synaptosomes; read-out: Dopamine D₂ binding test IC₅₀. How it is done: Crude synaptosome fraction was separated from corpus striatum of 9 to 10 weeks-aged Wistar rats and suspended into 50 mM tris-hydrochloric acid buffer solution (pH 7.1) containing 120 mM sodium chloride, 5 mM potassium chloride, 2 mM calcium chloride, 1 mM magnesium chloride, 10 µM pargyline and 0.1% ascorbic acid. Next, to the resulting synaptosome suspension were added the test compound of the present invention at several concentrations and tritium Spiperone at the terminal concentration of 0.2 nM, and the mixture was allowed to react at 37°C for 20 minutes. After completion of the reaction, the reaction mixture was suction filtered through Whatman GF/B glass filter. The glass filter was washed with 50 mM tris-hydrochloric acid buffer solution (pH 7.7), and then the radioactivity of the residue remaining on the glass filter was measured by liquid scintillation counter. Non-specific binding was determined under the presence of […]. 50% Inhibition concentration (IC₅₀) of the test compound was graphically determined.

T2 sequence (P61169 whole entry): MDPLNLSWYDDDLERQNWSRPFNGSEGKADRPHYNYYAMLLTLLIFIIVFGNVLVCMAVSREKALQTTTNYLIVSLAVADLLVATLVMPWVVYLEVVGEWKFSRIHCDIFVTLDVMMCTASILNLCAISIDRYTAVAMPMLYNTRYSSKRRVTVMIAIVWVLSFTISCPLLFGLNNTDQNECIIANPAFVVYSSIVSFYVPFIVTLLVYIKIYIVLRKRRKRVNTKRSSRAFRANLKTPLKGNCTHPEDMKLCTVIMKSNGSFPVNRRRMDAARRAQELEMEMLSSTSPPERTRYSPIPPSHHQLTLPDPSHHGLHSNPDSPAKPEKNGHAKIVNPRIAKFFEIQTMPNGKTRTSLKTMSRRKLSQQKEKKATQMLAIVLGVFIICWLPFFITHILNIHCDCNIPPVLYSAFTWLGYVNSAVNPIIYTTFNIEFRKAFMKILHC

For the compound `CN1CC(C)(C)Oc2c(C(=O)N[C@@H]3CN4CCC3CC4)cc(Cl)cc21.Cl` [Example 5, (S)-6-chloro-2,2,4-trimethyl-N-(3-quinuclidinyl)-3,4-dihydro-2H-1,4-benzoxazine-8-carboxamide hydrochloride], the ED₅₀ with 5-HT₃ receptor is reported as 0.11 µg/kg.
As to `CCCCN1CCCC1CNC(=O)c1cc(Cl)cc2c1OCCN2C` (centres unmarked) [Example 14, 6-chloro-4-methyl-N-[(1-butyl-2-pyrrolidinyl)-methyl]-3,4-dihydro-2H-1,4-benzoxazine-8-carboxamide hydrochloride], the IC50 in experiment [1] was determined as 62 nM.
Still for that read-out and setting: the result for `CCN1CCCC1CNC(=O)c1cc(Cl)cc2c1OCCN2C` (centres unmarked) [Example 13, 6-chloro-4-methyl-N-[(1-ethyl-2-pyrrolidinyl)methyl]-3,4-dihydro-2H-1,4-benzoxazine-8-carboxamide hydrochloride] reads 750 nM.
The compound `CN1CC(C)(C)Oc2c(C(=O)N[C@H]3CN4CCC3CC4)cc(Cl)cc21.Cl` [Example 4, (R)-6-chloro-2,2,4-trimethyl-N-(3-quinuclidinyl)-3,4-dihydro-2H-1,4-benzoxazine-8-carboxamide hydrochloride] registered an ED₅₀ with 5-HT₃ receptor of 0.17 µg/kg.
Turning to `CCCCN1CCC[C@@H]1CNC(=O)c1cc(Cl)cc2c1OCCN2C` [Example 39, (R)-(+)-N-[(1-butyl-2-pyrrolidinyl)methyl]-6-chloro-4-methyl-3,4-dihydro-2H-1,4-benzoxazine-8-carboxamide], the values for the IC50 (on dopamine D₂ receptor; in experiment [1]) were 630 nM and 420 nM, respectively.
`CN1CC(C)(C)Oc2c(C(=O)NC3CN4CCC3CC4)cc(Cl)cc21.Cl` (centres unmarked) [Example 3, 6-chloro-2,2,4-trimethyl-N-(3-quinuclidinyl)-3,4-dihydro-2H-1,4-benzoxazine-8-carboxamide hydrochloride] registered an ED₅₀ with 5-HT₃ receptor of 0.12 µg/kg.
As for `CCCCCCCCCN1CCC[C@@H]1CNC(=O)c1cc(Cl)cc2c1OCCN2C` [Example 38, (R)-(+)-6-chloro-4-methyl-N-[(1-nonyl-2-pyrrolidinyl)methyl]-3,4-dihydro-2H-1,4-benzoxazine-8-carboxamide], the IC50 came to 690 nM at dopamine D₂ receptor and 24 nM in experiment [1].
Take `CN1CCOc2c(C(=O)N[C@H]3CN4CCC3CC4)cc(Cl)cc21` [Example 7, (R)-6-chloro-4-methyl-N-(3-quinuclidinyl)-3,4-dihydro-2H-1,4-benzoxazine-8-carboxamide]: the ED₅₀ in the experiment with 5-HT₃ receptor came out at 0.73 µg/kg.
Still for that read-out and setting: the result for `CN1CCOc2c(C(=O)NC3CN4CCC3CC4)cc(Cl)cc21.Cl` (centres unmarked) [Example 1, 6-chloro-4-methyl-N-(3-quinuclidinyl)-3,4-dihydro-2H-1,4-benzoxazine-8-carboxamide hydrochloride] reads 0.28 µg/kg.
